Test systems include A498 renal; CCRF-CEM leukemia; HCC-2998 colon; NCI-H226 lung; RXF 393 renal; SF-295 CNS; SK-MEL-28 melanoma; SW-620 colon; UACC-257 melanoma; NCI/ADR-RES ovarian; PC-3 prostate.
Common to all, as to assay: inhibition of tumour cell growth, NCI panel, 48 h

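Interpolation was linear, between the two tested concentrations surrounding the appropriate level; five concentrations were tested over 48 hours in 96-well plates. At the TGI there is no net growth.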

On to `Cc1ccc(Sc2ccccc2N)cc1`, for which the TGI is above 100 µM in the assay on A498 renal; 70 µM in the assay on CCRF-CEM leukemia; above 100 µM with HCC-2998 colon; 66.4 µM in the assay on NCI-H226 lung; 47.2 µM in the assay with RXF 393 renal; above 100 µM in the assay on SF-295 CNS. Besides, the TGI in the assay with SK-MEL-28 melanoma, in the assay on SW-620 colon and with UACC-257 melanoma was above 100 µM each time.
Take `COc1ccc(/C=C/C(=O)c2sc(-c3cccnc3)nc2C)cc1`: the TGI is above 100 µM in the assay with A498 renal; above 100 µM with CCRF-CEM leukemia; above 100 µM with HCC-2998 colon; above 100 µM with NCI-H226 lung; 90.8 µM with RXF 393 renal; above 100 µM in the assay with SF-295 CNS. The TGI with SK-MEL-28 melanoma, in the assay with SW-620 colon and in the assay with UACC-257 melanoma was above 100 µM throughout.
With `CCN(CC)Cc1cc(Nc2ccnc3ccc4nn(C)nc4c23)ccc1O`, the TGI is above 100 µM in the assay on CCRF-CEM leukemia; 26.4 µM in the assay on HCC-2998 colon; 41.7 µM with NCI-H226 lung; 21.6 µM in the assay with RXF 393 renal; 29.1 µM in the assay with SF-295 CNS; 27.4 µM with SK-MEL-28 melanoma. Moreover, the TGI was determined as 28.2 µM with SW-620 colon and 27.8 µM in the assay with UACC-257 melanoma.
For the compound `CC(C)c1ccc(/C=C/c2cc(C(=O)NNC(=O)NC3CCCCC3)nc(=S)[nH]2)cc1`, the TGI in the assay with A498 renal, in the assay on HCC-2998 colon, in the assay with NCI-H226 lung, in the assay on RXF 393 renal, with SF-295 CNS and in the assay with SK-MEL-28 melanoma was above 100 µM throughout. Also, the TGI with SW-620 colon and in the assay on UACC-257 melanoma was above 100 µM in each case.
`C/C(=N/O)c1sc(-c2nc(C)c(/C(C)=N\O)s2)nc1C`: the TGI in the assay on A498 renal, in the assay with CCRF-CEM leukemia, with HCC-2998 colon, in the assay with NCI-H226 lung, in the assay with RXF 393 renal and in the assay with SF-295 CNS was above 100 µM each time. Besides, the TGI with SK-MEL-28 melanoma, with SW-620 colon and in the assay on UACC-257 melanoma was above 100 µM each time.
Consider `O=C(O)c1ccc([C@@H]2C(=O)N(O)[C@@H]3C=CC[C@@H]32)cc1`, for which the TGI in the assay with CCRF-CEM leukemia, with HCC-2998 colon, in the assay on NCI-H226 lung, in the assay on RXF 393 renal, in the assay with SF-295 CNS and in the assay with SK-MEL-28 melanoma was above 100 µM in each case. Moreover, the TGI with SW-620 colon and in the assay on UACC-257 melanoma was above 100 µM in each case.
For the compound `Cc1nc2c3c(ccc2[nH]c1=O)C(=O)c1ccccc1C3=O`, the TGI in the assay on A498 renal, in the assay on HCC-2998 colon, in the assay on NCI-H226 lung, in the assay with RXF 393 renal, with SF-295 CNS and in the assay with SK-MEL-28 melanoma was above 100 µM in each case. Moreover, the TGI in the assay with SW-620 colon and in the assay on UACC-257 melanoma was above 100 µM in each case.
As for `COC(=O)C(=O)C(/C(=N/N)C(=O)Nc1ccccc1C(N)=O)c1nc2ccc([N+](=O)[O-])cc2[nH]c1=O` (centres undefined), the TGI in the assay on A498 renal, in the assay on CCRF-CEM leukemia, in the assay on HCC-2998 colon, with NCI-H226 lung, with SF-295 CNS and in the assay with SK-MEL-28 melanoma was above 100 µM throughout. Moreover, the TGI in the assay on SW-620 colon and in the assay on UACC-257 melanoma was above 100 µM throughout.
`CC(C)OP(=O)(OC(C)C)C(=NCCN=C(NNc1ccccc1[N+](=O)[O-])P(=O)(OC(C)C)OC(C)C)NNc1ccccc1[N+](=O)[O-]`: the TGI in the assay on A498 renal is above 100 µM; in the assay with CCRF-CEM leukemia, 70.9 µM; in the assay on HCC-2998 colon it was above 100 µM; with NCI-H226 lung, 67.4 µM; in the assay with SK-MEL-28 melanoma, above 100 µM; in the assay on SW-620 colon, above 100 µM. The compound further registered a TGI with UACC-257 melanoma of 84.6 µM.
As for `CC1=C(C(=O)CC(=O)C(=O)Nc2ccc(C)c(C)c2)Sc2ccccc2N1`, the TGI in the assay with A498 renal, in the assay on HCC-2998 colon, with NCI-H226 lung, in the assay with RXF 393 renal, in the assay with SF-295 CNS and in the assay on SK-MEL-28 melanoma was above 100 µM throughout. For the same compound, the TGI in the assay with SW-620 colon and with UACC-257 melanoma was above 100 µM in each case.
As for `COc1ccc2c(c1)[n+]([O-])c(/C(C)=N/NC(=O)c1ccccc1O)c(C)[n+]2[O-]`, the TGI in the assay on CCRF-CEM leukemia, with HCC-2998 colon, in the assay with NCI-H226 lung, in the assay with RXF 393 renal, with SF-295 CNS and in the assay with SK-MEL-28 melanoma was above 100 µM each time. For the same compound, the TGI in the assay with SW-620 colon and with UACC-257 melanoma was above 100 µM each time.
As to `CCOC(=O)C1SC(=Nc2ccc(Cl)cc2Cl)N=C1C` (centres undefined), the TGI with A498 renal, in the assay with HCC-2998 colon, with NCI-H226 lung, with RXF 393 renal, in the assay on SF-295 CNS and in the assay on SK-MEL-28 melanoma was above 100 µM throughout. Further, the TGI with SW-620 colon and with UACC-257 melanoma was above 100 µM throughout.
Regarding `O=C(O)C12CCC(CC1=O)C2` (centres undefined), the TGI in the assay with CCRF-CEM leukemia, in the assay on NCI-H226 lung, in the assay with NCI/ADR-RES ovarian, in the assay on PC-3 prostate, in the assay on SF-295 CNS and in the assay on SK-MEL-28 melanoma was above 100 µM in each case. Also, the TGI in the assay on SW-620 colon and with UACC-257 melanoma was above 100 µM in each case.
In the case of `CN(C)C(=NC#N)N(Cc1ccccc1)Cc1ccccc1`, the TGI with A498 renal, with CCRF-CEM leukemia, in the assay on HCC-2998 colon, in the assay with NCI-H226 lung, in the assay with RXF 393 renal and in the assay on SF-295 CNS was above 100 µM in each case. The TGI was above 100 µM in the assay on SK-MEL-28 melanoma, 33.7 µM in the assay on SW-620 colon and above 100 µM with UACC-257 melanoma.
As to `COc1ccccc1NC(=O)CC(=O)N1N=C(c2ccccc2)C(N=Nc2ccc(Cl)cc2)C1=O` (centres undefined), the TGI in the assay on A498 renal was 35.2 µM; with HCC-2998 colon it was above 100 µM; in the assay with NCI-H226 lung it was above 100 µM; in the assay on SF-295 CNS, 70.3 µM; in the assay on SK-MEL-28 melanoma it was above 100 µM; in the assay on SW-620 colon, above 100 µM. Further, the TGI with UACC-257 melanoma is above 100 µM.
With `Cc1ccc(-c2nnc3s/c(=C\c4ccc(N(C)C)cc4)c(=O)n23)cc1`, the TGI in the assay with A498 renal, in the assay with CCRF-CEM leukemia, with HCC-2998 colon, in the assay on NCI-H226 lung, with RXF 393 renal and in the assay on SF-295 CNS was above 100 µM each time. For the same compound, the TGI in the assay on SK-MEL-28 melanoma is above 100 µM; with SW-620 colon, above 100 µM; with UACC-257 melanoma it was 77.5 µM.
With `O=C(O)CCN(CCCN(CCC(=O)O)CCC(=O)O)CCC(=O)O`, the TGI in the assay with A498 renal, with CCRF-CEM leukemia, in the assay with HCC-2998 colon, in the assay with SF-295 CNS, in the assay with SK-MEL-28 melanoma and in the assay on SW-620 colon was above 100 µM each time.
Turning to `COC(=O)C(c1ccc(OC)cc1)N1C(=O)[C@@H](NC(=O)c2ccccc2)[C@H]1[C@@H](C)O` (some centres undefined), the TGI in the assay on CCRF-CEM leukemia, in the assay with HCC-2998 colon, in the assay with NCI-H226 lung, with RXF 393 renal, in the assay with SF-295 CNS and in the assay on SK-MEL-28 melanoma was above 100 µM in each case. The TGI with SW-620 colon and in the assay with UACC-257 melanoma was above 100 µM in each case.
Turning to `O=C1C(c2ccccc2)=C(c2ccccc2)C(c2ccc(Sc3ccc(C4=C(c5ccccc5)C(=O)C(c5ccccc5)=C4c4ccccc4)cc3)cc2)=C1c1ccccc1`, the TGI in the assay on A498 renal, in the assay on CCRF-CEM leukemia, in the assay on NCI-H226 lung, in the assay on RXF 393 renal, in the assay with SF-295 CNS and in the assay with SW-620 colon was above 100 µM each time. In the assay on UACC-257 melanoma, this compound yielded a TGI above 100 µM.
Consider `NC(CCCCNCc1ccccc1)C(=O)O` (centres undefined), for which the TGI with A498 renal, in the assay on CCRF-CEM leukemia, with HCC-2998 colon, in the assay with NCI-H226 lung, in the assay with SF-295 CNS and in the assay with SK-MEL-28 melanoma was above 100 µM each time. Also, the TGI with SW-620 colon and in the assay with UACC-257 melanoma was above 100 µM each time.
As for `O=C(CC1(O)C(=O)Nc2c(Cl)cc(Cl)cc21)c1ccc(F)cc1` (centres undefined), the TGI with HCC-2998 colon was above 100 µM; with NCI-H226 lung, above 100 µM; with RXF 393 renal, 88.3 µM; with SF-295 CNS, above 100 µM; in the assay on SK-MEL-28 melanoma, above 100 µM; in the assay with SW-620 colon, above 100 µM. In addition, the TGI with UACC-257 melanoma was 65 µM.
With `CC(=O)NNc1nc(C)c(C(=O)/C=C/c2ccc(Cl)c(Cl)c2)s1`, the TGI in the assay with A498 renal, with CCRF-CEM leukemia, in the assay on HCC-2998 colon, in the assay with RXF 393 renal, in the assay on SF-295 CNS and with SK-MEL-28 melanoma was above 100 µM throughout. Moreover, the TGI in the assay with SW-620 colon and in the assay on UACC-257 melanoma was above 100 µM in each case.
With `NC(N)=NS(=O)(=O)c1ccc(NC(=O)c2cccc3c(N)c4ccccc4nc23)cc1`, the TGI in the assay with A498 renal, in the assay with CCRF-CEM leukemia, in the assay with HCC-2998 colon, in the assay with NCI-H226 lung, with RXF 393 renal and in the assay with SF-295 CNS was above 100 µM each time. The TGI in the assay on SK-MEL-28 melanoma, in the assay with SW-620 colon and in the assay with UACC-257 melanoma was above 100 µM in each case.

These data come from PubChem BioAssay (NCI).
